Experimental data as given in patent EP3262036B1, “THERAPEUTIC PYRIDAZINE COMPOUNDS AND USES THEREOF” (priority 2015, dated 2016).

What follows are compounds tested against BRG1 (Homo sapiens, UniProt P51532) (assay: biochemical). Settings: BRG1 HTRF IC50 (µM).
Format: binding
Description: IC50 measurements for inhibitors using BRG1 TR-FRET Binding Assay

Sequence of BRG1 (P51532 1448-1575): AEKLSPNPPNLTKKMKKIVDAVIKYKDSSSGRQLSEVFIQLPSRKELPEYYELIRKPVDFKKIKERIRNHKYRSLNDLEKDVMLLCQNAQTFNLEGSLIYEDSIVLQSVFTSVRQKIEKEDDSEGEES

| SMILES | IC50 |
| --- | --- |
| Nc1nnc(-c2cc(F)cc(F)c2O)cc1-c1ccccc1 [Example 232, 2-(6-amino-5-phenylpyridazin-3-yl)-4,6-difluorophenol] | 0.176 µM |
| Nc1nnc(-c2ccccc2O)cc1OC1CCN(c2ccccc2)C1 (centres unmarked) [Example 184, 2-(6-amino-5-((1-phenylpyrrolidin-3-yl)oxy)pyridazin-3-yl)phenol] | 0.192 µM |
| CC1CN(c2cc(-c3ccccc3O)nnc2N)CCN1C(=O)Cc1ccccn1 (centres unmarked) [Example 125, 1-(4-(3-amino-6-(2-hydroxyphenyl)pyridazin-4-yl)-2-methylpiperazin-1-yl)-2-(pyridin-2-yl)ethan-1-one] | 0.0426 µM |
| Nc1nnc(-c2ccccc2O)cc1OC1CCCN(C(=O)c2ccccc2)C1 (centres unmarked) [Example 185, (3-((3-amino-6-(2-hydroxyphenyl)pyridazin-4-yl)oxy)piperidin-1-yl)(phenyl)methanone] | 0.641 µM |
| Nc1nnc(-c2ccccc2O)cc1N1CCN(c2ccccc2)CC1 [Example 13, 2-(6-amino-5-(4-phenylpiperazin-1-yl)pyridazin-3-yl)phenol] | 0.0321 µM |
| CC1CN(c2cc(-c3ccccc3O)nnc2N)CCN1S(=O)(=O)C1CC1 (centres unmarked) [Example 111, 2-(6-amino-5-(4-(cyclopropylsulfonyl)-3-methylpiperazin-1-yl)pyridazin-3-yl)phenol] | 0.0197 µM |
| Nc1nnc(-c2ccccc2O)cc1C1CC1 [Example 190, 2-(6-amino-5-cyclopropylpyridazin-3 - yl)phenol] | 0.0176 µM |
| Nc1nnc(-c2ccccc2O)cc1N1C[C@@H]2C[C@H]1CN2Cc1ccccc1 [Example 17, 2-(6-amino-5-((1S,4S)-5-benzyl-2,5-diazabicyclo[2.2.1]heptan-2-yl)pyridazin-3-yl)phenol] | 0.147 µM |
| CN1CCOC2(CCN(c3cc(-c4ccccc4O)nnc3N)CC2)C1 [Example 25, 2-(6-amino-5-(4-methyl-1-oxa-4,9-diazaspiro[5.5]undecan-9-yl)pyridazin-3-yl)phenol] | 0.0176 µM |
| C[C@H]1CN(c2cc(-c3ccccc3O)nnc2N)CCN1Cc1nccn1C [Example 92, (S)-2-(6-amino-5-(3-methyl-4-((1-methyl-1H-imidazol-2-yl)methyl)piperazin-1-yl)pyridazin-3-yl)phenol] | 0.0185 µM |
| Nc1nnc(-c2ccccc2O)cc1C(=O)NCc1ccccc1 [Example 234, 3-amino-N-benzyl-6-(2-hydroxyphenyl)pyridazine-4-carboxamide] | 0.102 µM |
| C[C@@H](C(=O)N(C)C)n1cc(-c2cc(-c3ccccc3O)nnc2N)cn1 [Example 196, 2-(4-(3-Amino-6-(2-hvdroxyphenyl)pyridazin-4-vl)-1H-pvrazol-1-yl)-N,N-dimethylpropanamide] | 0.0247 µM |
| Nc1nnc(-c2ccccc2O)cc1OC1CCCN(Cc2ccccc2)C1 (centres unmarked) [Example 181, 2-(6-amino-5-((1-benzylpiperidin-3-yl)oxy)pyridazin-3-yl)phenol] | 0.0337 µM |
| Nc1nnc(-c2ccccc2O)cc1N1CCN(S(=O)(=O)c2ccccc2)CC1 [Example 11, 2-(6-amino-5-(4-(phenylsulfonyl)piperazin-1-yl)pyridazin-3-yl)phenol] | 0.0612 µM |
| C[C@H](C(=O)N(C)C)n1cc(-c2cc(-c3ccccc3O)nnc2N)cn1 [Example 195, 2-(4-(3-Amino-6-(2-hvdroxyphenyl)pyridazin-4-vl)-1H-pvrazol-1-yl)-N,N-dimethylpropanamide] | 0.0217 µM |
| CC1CN(c2cc(-c3ccccc3O)nnc2N)CCN1C(=O)C(C)(C)O (centres unmarked) [Example 134, 1-(4-(3-amino-6-(2-hydroxyphenyl)pyridazin-4-yl)-2-methylpiperazin-1-yl)-2-hydroxy-2-methylpropan-1-one] | 0.0349 µM |

| SMILES | IC50 |
| --- | --- |
| CC1(C)CN(c2cc(-c3ccccc3O)nnc2N)CCN1S(C)(=O)=O [Example 112, 2-(6-amino-5-(3,3-dimethyl-4-(methylsulfonyl)piperazin-1-yl)pyridazin-3-yl)phenol] | 0.0307 µM |
| Nc1nnc(-c2ccccc2O)cc1N1CCC(O)(Cc2ccccc2)C1 (centres unmarked) [Example 39, 1-(3-amino-6-(2-hydroxyphenyl)pyridazin-4-yl)-3-benzylpyrrolidin-3-ol] | 0.113 µM |
| C[C@H]1CN(c2cc(-c3ccccc3O)nnc2N)CCN1C(=O)[C@@H]1CCCO1 [Example 142, ((S)-4-(3-amino-6-(2-hydroxyphenyl)pyridazin-4-yl)-2-methylpiperazin-1-yl)((S)-tetrahydrofuran-2-yl)methanone] | 0.0975 µM |
| Nc1nnc(-c2ccccc2O)cc1N1CCC(c2ccccc2)C1 (centres unmarked) [Example 55, 2-(6-amino-5-(3-phenylpyrrolidin-1-yl)pyridazin-3-yl)phenol] | 0.123 µM |
| C[C@H]1CN(c2cc(-c3ccccc3O)nnc2N)CCN1C(=O)C(C)(C)O [Example 146, (S)-1-(4-(3-amino-6-(2-hydroxyphenyl)pyridazin-4-yl)-2-methylpiperazin-1-yl)-2-hydroxy-2-methylpropan-1-one] | 0.0458 µM |
| C[C@@H]1CN(c2cc(-c3ccccc3O)nnc2N)C[C@@H](C)O1 [Example 242, 2-[6-amino-5-[(2R,6R)-2,6-dimethylmorpholin-4-yl]pyridazin-3-yl]phenol] | 0.0589 µM |
| Cn1ncc2cc(CN3CCN(c4cc(-c5ccccc5O)nnc4N)CC3)ccc21 [Example 105, 2-[6-amino-5-[4-[(1-methylindazol-5-yl)methyl]piperazin-1-yl]pyridazin-3-yl]phenol] | 0.0279 µM |
| Nc1nnc(-c2ccccc2O)cc1N1CCC(O)(c2ccccc2)CC1 [Example 42, 1-(3-amino-6-(2-hydroxyphenyl)pyridazin-4-yl)-4-phenylpiperidin-4-ol] | 0.0113 µM |
| Nc1nnc(-c2ccccc2O)cc1N1C[C@H]2C[C@@H]1CN2c1ccccn1 [Example 74, 2-(6-amino-5-((1R,4R)-5-(pyridin-2-yl)-2,5-diazabicyclo[2.2.1]heptan-2-yl)pyridazin-3-yl)phenol] | 0.0106 µM |
| CS(=O)(=O)N1C2CCC1CN(c1cc(-c3ccccc3O)nnc1N)C2 [Example 67, 2-(6-amino-5-(8-(methylsulfonyl)-3,8-diazabicyclo[3.2.1]octan-3-yl)pyridazin-3-yl)phenol] | 0.0294 µM |
| Nc1nnc(-c2ccccc2O)cc1N1CCNC(=O)C1 [Example 53, 4-(3-amino-6-(2-hydroxyphenyl)pyridazin-4-yl)piperazin-2-one] | 0.316 µM |
| CC(C)(C)OC(=O)N1CCC(c2cc(-c3ccccc3O)nnc2N)C1 (centres unmarked) [Example 212, tert-butyl 3-(3-amino-6-(2-hydroxyphenyl)pyridazin-4-yl)pyrrolidine-1-carboxylate] | 0.0694 µM |
| CN1CCC(Oc2cc(-c3ccccc3O)nnc2N)CC1 [Example 172, 2-(6-amino-5-((1-methylpiperidin-4-yl)oxy)pyridazin-3-yl)phenol] | 0.161 µM |
| CN1CCCC(Oc2cc(-c3ccccc3O)nnc2N)C1 (centres unmarked) [Example 246, 2-(6-amino-5-((1-methylpiperidin-3-yl)oxy)pyridazin-3-yl)phenol] | 0.26 µM |
| CC(=O)N1CCC(c2cc(-c3ccccc3O)nnc2N)CC1 [Example 227, 1-(4-(3-amino-6-(2-hydroxyphenyl)pyridazin-4-yl)piperidin-1-yl)ethanone] | 0.0848 µM |
| C[C@@H]1CN(c2cc(-c3ccccc3O)nnc2N)CCN1C(=O)c1cccnc1 [Example 156] | 0.0435 µM |
